Source: patent publication US5773424A, “Treatment of toxoplasmosis” (priority 1994, dated 1998)

Target: T. gondii adenosine kinase (Toxoplasma gondii, UniProt Q9TVW2)
Assay: biochemical
Details: not given
Experimental: Preparation of cytosol extracts. For the structure activity relationships studies, approximately 5×10^8 T. gondii were suspended in 1.2 ml of 50 mM N-2-hydroxyethylpiperazine-N'-2-ethanesulfonic acid (HEPES)-Cl (pH 8.0)/1 mM dithiothreitol and homogenized for 30 seconds at setting 10, using a Brinnmann Instruments Polytron homogenizer fitted with a PTA 7K1 probe. The homogenate was then centrifuged at approximately 116,000 g for 1 hour at 5° and the supernatant (cytosol extract) collected and used as the enzyme source. Fresh cytosol extracts were prepared for each experiment.
Adenosine kinase assay. T. gondii adenosine kinase activity was measured by following the formation of [^14 C]AMP from [^14 C]adenosine and ATP. […] Therefore, the standard reaction mixture contained 50 mM HEPES-Cl (pH 8.0), 1 mM dithiothreitol, 5 μM [8-^14 C]adenosine (45 Ci/mol), 0.5 mM ATP, 0.5 mM MgCl2, 25 μM (+)-EHNA or 100 μM (±)-EHNA,10-30 μl of cytosol extract (approximately 3-10 μg of protein), and either 0, 0.1, 0.25, 0.5 or 1.0 mM of the compound to be tested, in a final volume of 150 μl.
Reactions were started by the addition of [8-^14 C]adenosine, incubated at 37° for 10 minutes and terminated by placing the reaction tubes in a boiling water bath for 2 minutes. Precipitated proteins were removed by centrifugation in a microcentrifuge (approximately 13,000 g) for 5 minutes, and a 15 μl aliquot of the resulting supernatant was mixed with 5 μl of a solution containing 10 mM each of AMP and adenosine. This mixture was then spotted on silica gel thin layer chromatography plates which were developed with a mixture of chloroform/methanol/acetic acid (16:3:1). […] The substrate and product spots (which accounted for all of the radioactivity on the plates) were identified by UV quenching, cut out, and the radioactivity quantitated by liquid scintillation counting in 20 ml of Scintilene, using a Packard 460 scintillation counter. […] Enzyme velocity was calculated by multiplying the fraction of AMP formed from adenosine times the amount of adenosine in the assay, and dividing by the incubation time.
Determination and significance of AppKi values. AppKi values were used to determine the relative degree of binding of compounds to adenosine kinase as compared to adenosine. AppKi values were estimated from Dixon plots of the data (1/.nu. versus [I]), using a computer program with least squares fitting according to the general principles of Cleland (Cleland, W W, The statistical analysis of enzyme kinetic data. Adv. Enzymol. 29:1-32, 1967). The program was written by Dr. Sungman Cha (Brown University, Providence, R.I.) and modified to fit IBM BASIC by Dr. Fardos N. M. Naguib. […] It should be noted, however, that the type of inhibition (i.e., competitive, noncompetitive, or uncompetitive) produced by the compounds was not determined, nor were the compounds evaluated as substrates for T. gondii adenosine kinase.

Chain of T. gondii adenosine kinase (Q9TVW2 whole entry): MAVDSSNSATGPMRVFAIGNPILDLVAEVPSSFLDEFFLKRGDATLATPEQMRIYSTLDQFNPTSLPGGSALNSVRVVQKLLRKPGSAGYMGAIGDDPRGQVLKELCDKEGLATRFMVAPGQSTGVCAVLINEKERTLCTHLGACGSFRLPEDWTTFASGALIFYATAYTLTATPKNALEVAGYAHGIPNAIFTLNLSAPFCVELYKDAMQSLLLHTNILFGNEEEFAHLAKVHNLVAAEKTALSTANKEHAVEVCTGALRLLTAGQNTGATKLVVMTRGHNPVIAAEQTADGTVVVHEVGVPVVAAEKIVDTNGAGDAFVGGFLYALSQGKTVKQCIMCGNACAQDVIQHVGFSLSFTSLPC

| Structure (SMILES) | Ki [µM] |
| --- | --- |
| CCCCNc1ncnc2c1ncn2[C@@H]1O[C@H](CO)[C@@H](O)[C@H]1O [Compound 32] | 220 ± 90 |
| O=C(Nc1ncnc2c1ncn2[C@H]1C[C@H](O)[C@@H](CO)O1)c1ccccc1 [Compound 118, N^6 -Benzoyl-2'-deoxyadenosine] | 590 ± 20 |
| Nc1ncnc2c1ncn2[C@@H]1O[C@H](CO)[C@H](O)[C@H]1O [Compound 92, Adenine xyloside] | 1400 |
| O=c1[nH]cnc2c([C@@H]3O[C@H](CO)[C@@H](O)[C@H]3O)n[nH]c12 [Compound 82, 8-Aza-9-deazainosine (formycin B)] | 3100 |
| Nc1ncnc2c1ncn2[C@@H]1O[C@H](CO)[C@@H](O)[C@@H]1O [Compound 86, Adenine arabinoside (ara-A)] | 3000 |
| CCSc1ncnc2c1ncn2[C@@H]1O[C@H](CO)[C@@H](O)[C@H]1O [Compound 19] | 330 ± 3 |
| OC[C@H]1O[C@@H](n2cnc3c(Nc4ccccc4)ncnc32)[C@H](O)[C@@H]1O [Compound 43] | 88 ± 12 |
| CSc1ncnc2c1cnn2[C@@H]1O[C@H](CO)[C@@H](O)[C@H]1O [Compound 79, 8-Aza-6-methylmercapto-7-deazapurine riboside] | 140 ± 30 |
| Nc1ncnc2c1ncn2[C@H]1O[C@H](CO)[C@@H](O)[C@H]1O [Compound 3] | 8400 |
| Nc1ncnc2c1ncn2[C@H]1CC[C@@H](CO)O1 [Compound 106, 2',3'-Dideoxyadenosine] | 5500 |
| COc1ccc(C[C@H](N)C(=O)N[C@H]2[C@@H](O)[C@H](n3cnc4c(N(C)C)ncnc43)O[C@@H]2CO)cc1 [Compound 124, 3'(α-Amino-p-methoxyhydrocinnamamido)-3'-deoxy-N^6-dimethyladenosine (Puromycin)] | 1300 |
| Cn1cnc2c(ncn2[C@H]2C[C@H](O)[C@@H](CO)O2)c1=N [Compound 116, 1-Methyl-2'-deoxyadenosine] | 8000 |
| Cn1cnc2c(ncn2[C@@H]2O[C@H](CO)[C@@H](O)[C@H]2O)c1=N [Compound 6] | 88 ± 28 |
| CCCCCCNc1ncnc2c1ncn2[C@@H]1O[C@H](CO)[C@@H](O)[C@H]1O [Compound 39] | 76 ± 4 |
| Nc1ncnc2c1nnn2[C@@H]1O[C@H](CO)[C@@H](O)[C@H]1O [Compound 57] | 23 ± 6 |
| CC(C)CC[C@H]1O[C@@H](n2cnc3c(N)ncnc32)[C@H](O)[C@@H]1O [Compound 101, 5'-Isobutyl-5'-deoxyadenosine] | 410 ± 90 |

| Structure (SMILES) | Ki [µM] |
| --- | --- |
| COc1ccc(C2OC3C(CO)OC(n4cnc5c(N)ncnc54)C3O2)cc1 (stereo not drawn) [Compound 108, 2',3'-O-p-Anisylidene adenosine] | 1400 |
| Nc1ncnc2c1ncn2[C@@H]1O[C@H](CO)C[C@H]1O [Compound 90, 3'-Deoxyadenosine (Cordycepin)] | 1100 |
| Nc1ncnc2c1ncn2[C@@H]1O[C@H](CO)[C@@H](O)[C@H]1O [Compound 1] | 7 ± 3.3 |
| Nc1ncnc2c1nc(Br)n2[C@@H]1O[C@H](CO)[C@@H](O)[C@H]1O [Compound 59] | 660 ± 70 |
| Nc1ncnc2c1ncn2[C@@H]1O[C@H](COC(=O)CCC(=O)O)[C@@H](O)[C@H]1O [Compound 100, 5'-Succinyladenosine (adenosine 5'-succinate)] | 920 ± 600 |
| C/C(=C\CNc1ncnc2c1ncn2[C@@H]1O[C@H](CO)[C@@H](O)[C@H]1O)CO [Compound 34] | 280 ± 20 |
| NC(=O)c1cn([C@@H]2O[C@H](CO)[C@@H](O)[C@H]2O)c2nc[n+]([O-])c(N)c12 [Compound 80, 7-Carboxamido-7-deazaadenosine-N^1-oxide] | 780 ± 70 |
| NC(=O)c1ncn([C@@H]2O[C@H](CO)[C@@H](O)[C@H]2O)c1N [Compound 123, 5'-Aminoimidazole-4-carboxamide riboside] | 2400 |
| CCSc1ncnc2c1cnn2[C@@H]1O[C@H](CO)[C@@H](O)[C@H]1O [Compound 76, 8-Aza-6-ethylmercapto-7-deazapurine riboside] | 210 ± 100 |
| OC[C@H]1O[C@@H](n2cnc3c(Cl)ncnc32)[C@H](O)[C@@H]1O [Compound 13, 6-Chloropurine riboside] | 9.5 |
| Nc1nc(NC2C=C(CO)C(O)C2O)c([N+](=O)[O-])c(=O)[nH]1 (stereo not drawn) [Compound 127, 2-Amino-4-(3-hydroxymethyl-4,5-dihydroxy-2-cyclopenten-1-yl)aminto-1,6-dihydro-5-nitro-6-oxopyrimidine] | 940 ± 110 |
| Nc1ncnc2c([C@@H]3O[C@H](CO)[C@@H](O)[C@H]3O)c[nH]c12 [Compound 60] | 3400 |
| OC[C@H]1O[C@@H](n2cnc3c(Br)ncnc32)[C@H](O)[C@@H]1O [Compound 12] | 28 ± 2 |
| OC[C@H]1O[C@@H](n2cnc3c(NCc4ccco4)ncnc32)[C@H](O)[C@@H]1O [Compound 38] | 180 ± 10 |
| CCCCCCCCCCNc1ncnc2c1ncn2[C@@H]1O[C@H](CO)[C@@H](O)[C@H]1O [Compound 42] | 380 ± 130 |

Same assay, conditions: AppKi for inhibition of T. gondii adenosine kinase, 5 μM adenosine; ± range, at least two estimations

| Structure (SMILES) | Ki [µM] |
| --- | --- |
| NC(=O)c1cn([C@@H]2O[C@H](CO)[C@@H](O)[C@H]2O)c2ncnc(N)c12 [Compound 55, 7-Carboxamido-7-deazaadenosine (Sangivamycin)] | < 60 |
| CNc1ncnc2c1ncn2[C@@H]1O[C@H](CO)[C@@H](O)[C@H]1O [Compound 26] | 23 ± 1 |
| Nc1nc(F)nc2c1ncn2[C@@H]1O[C@H](CO)[C@@H](O)[C@H]1O [Compound 8] | 3000 |
| CN(C)c1ncnc2c1ncn2[C@@H]1O[C@H](CO)[C@@H](N)[C@H]1O [Compound 119, N^6 -Dimethyl-3'-amino-3'-deoxyadenosine] | 540 ± 80 |
| Nc1ncnc2c1ncn2[C@@H]1O[C@H](C(=O)NC2CC2)[C@@H](O)[C@H]1O [Compound 104, 5'-N-(Cyclopropyl)carboxamidoadenosine] | 1100 |
| N#Cc1cn([C@@H]2O[C@H](CO)[C@@H](O)[C@H]2O)c2ncnc(N)c12 [Compound 54, 7-Cyano-7-deazaadenosine (Toyocamycin)] | < 60 |
| Nc1ncnc2c1ccn2[C@@H]1O[C@H](CO)[C@@H](O)[C@H]1O [Compound 51] | 340 ± 80 |
| OC[C@H]1O[C@@H](n2cnc3cncnc32)[C@H](O)[C@@H]1O [Compound 11] | 170 ± 20 |
| OC[C@H]1O[C@@H](n2cnc3c(NC4CCCC4)nc(Cl)nc32)[C@H](O)[C@@H]1O [Compound 66] | 390 ± 90 |

Same assay, conditions: read-out: AppKi for inhibition of T. gondii adenosine kinase; 5 μM adenosine; ± range, at least two estimations

| Structure (SMILES) | Ki [µM] |
| --- | --- |
| Nc1ncnc2c1ncn2C1O[C@H](CO)[C@H](O)[C@@H]1O (stereo partly drawn) [Compound 107, Adenine lyxoside] | 1300 |

Same assay, conditions: read-out: Inhibition of T. gondii adenosine kinase

| Structure (SMILES) | inhibition at 1000 µM [%] |
| --- | --- |
| Cc1ccc(S(=O)(=O)O[C@@H]2[C@H](O)[C@@H](CO)O[C@H]2n2cnc3c(N)ncnc32)cc1 [Compound 89, 2'Tosyladenosine] | < 10 |
| O=c1[nH]cnc(NC2C=C(CO)C(O)C2O)c1[N+](=O)[O-] (stereo not drawn) [Compound 126, 4-(3-Hydroxymethyl-4,5-dihydroxy-2-cyclopenten-1-yl)amino-1,6-dihydro-5-nitro-6-oxopyrimidine] | < 10 |
| O=c1[nH]cnc2c1ncn2[C@@H]1O[C@H](CO)[C@@H](O)[C@H]1O [Compound 15] | < 10 |
| Nc1nccc2c1ncn2[C@@H]1O[C@H](CO)[C@@H](O)[C@H]1O [Compound 10] | < 10 |
| Nc1ncnc2c1ncn2[C@H]1O[C@@H](CO)[C@H](O)[C@@H]1O [Compound 2] | < 10 |
| Nc1ncnc(NC2C=C(CO)C(O)C2O)c1[N+](=O)[O-] (stereo not drawn) [Compound 125, 4-(3-Hydroxymethyl-4,5-dihydroxy-2-cyclopenten-1-yl)amino-5-nitro-6-aminopyrimidine] | < 10 |
| OC[C@H]1O[C@@H](n2cnc3cccnc32)[C@H](O)[C@@H]1O [Compound 61] | < 10 |
| CCCCCCC(C(C)O)n1cnc2c(N)ncnc21 (racemic) [Compound 113, (±)-EHNA] | < 10 |
| O=c1[nH]c(=O)c2ncn([C@@H]3O[C@H](CO)[C@@H](O)[C@H]3O)c2[nH]1 [Compound 67] | < 10 |
| CC(=O)O[C@@H]1[C@H](OC(C)=O)[C@@H](CO)O[C@H]1n1cnc2c(N)ncnc21 [Compound 109, 2',3'-Di-O-acetyladenosine] | < 10 |

Same assay, conditions: relative to reference compound adenosine

| Structure (SMILES) | Decrease in binding to T. gondii adenosine kinase [fold] |
| --- | --- |
| Nc1ncnc2c1ncn2[C@@H]1O[C@H](CO)[C@H](O)[C@H]1O [Compound 92, Adenine xyloside] | 200 |
| Nc1ncnc2c1ncn2[C@@H]1O[C@H](CO)[C@@H](O)[C@@H]1O [Compound 86, Adenine arabinoside (ara-A)] | 430 |
| Nc1ncnc2c1ncn2C1O[C@H](CO)[C@H](O)[C@@H]1O (stereo partly drawn) [Compound 107, Adenine lyxoside] | 190 |
